{"source": "patent US12043870B2", "about": "“Methods and compositions for detecting and modulating an immunotherapy resistance gene signature in cancer” (The Broad Institute, Inc., priority 2017, dated 2024)", "key": {"[1]": {"tested_on": "human melanoma cells (Melanoma cell line 2686)", "experiment": "Abemaciclib doubling time and cytostatic effect", "type": "cell-based", "settings": "abemaciclib 500 nM", "experimental": "Cell number and viability were determined using the Countess™ II FL Automated Cell Counter (ThermoFisher) on days 2, 4 and 6. All experiments were performed in triplicates. Cell doubling per 24 hours was determined based on cell numbers comparing cells seeded and on day 6 using the following formula: duration (in days) x log(2)/log(final cell number) - log(initial cell number)."}, "UACC257": {"tested_on": "UACC257", "experiment": "scRNA-seq of melanoma cell line before and after treatment with abemaciclib for 1 week", "type": "cell-based, human", "settings": "UACC257 (RB1-sufficient); abemaciclib 1 week; 10% prior to treatment", "text": "(§1) To determine this effect in melanoma, Applicants identified melanoma cell lines in the Cancer Cell Line Encyclopedia (CCLE) with the strongest expression of the uICR signature, including IGR37, UACC257 (both RB-sufficient) and A2058 (RB-deficient). Applicants performed scRNA-seq on these cell lines before and after treatment with abemaciclib for 1 week (FIG. 41). In both IGR37 and UACC257, Applicants saw a decrease in the expression of the uICR state (P<3.59*10^−34, one-sided t-test). […] This population decreased from 10% before treatment (2,454 cells) to 2% in the post-treatment condition (1,570 cells).\n(§2) To test this hypothesis, Applicants studied the effect of abemaciclib on the immune resistance program in melanoma cell lines. […] Applicants profiled each cell line with scRNA-seq before and after treatment with abemaciclib for 1 week (FIGS. 49D-E), analyzing over 23,000 cells in these and follow-up conditions (below). […]\n(§3) Established melanoma cell lines […] and A2058 were acquired from the Cancer Cell Line Encyclopedia (CCLE) from the Broad Institute. […] Cells were lifted off culture dishes using Versene solution (Life Technologies), washed twice in 1×PBS, counted and resuspended in PBS supplemented with 0.04% BSA for loading for scRNA-seq with the 10X Genomics platform."}, "IGR37": {"tested_on": "IGR37", "experiment": "scRNA-seq of melanoma cell line before and after treatment with abemaciclib for 1 week", "type": "cell-based, human", "settings": "IGR37 (RB1-sufficient); abemaciclib 1 week; 10% prior to treatment", "text": "as §1, §2, §3"}, "melanoma cells": {"tested_on": "melanoma cells", "experiment": "Measurement of 40 human cytokines/chemokines in conditioned media of abemaciclib or DMSO treated cancer cells"}}, "note": "Where “and” joins values, the source holds several entries; their conditions need not be identical. Equal entries are not always repeated."}
{"molecule": "CCN1CCN(Cc2ccc(Nc3ncc(F)c(-c4cc(F)c5nc(C)n(C(C)C)c5c4)n3)nc2)CC1", "note": "[abemaciclib]", "values": [{"measurement": "cytotoxic effects", "setting": "[1]", "value": "do not find significant cytotoxic effects"}, {"measurement": "rate of proliferation", "setting": "[1]; DMSO 0.64", "value": 0.3, "unit": "doublings/24 hrs"}, {"measurement": "fraction of cells with exceptionally strong expression of the immune resistance program (\"immune resistant\" cells) post-treatment", "setting": "UACC257", "value": "1% and 0.6%"}, {"measurement": "fraction of cells with exceptionally strong expression of the immune resistance (uICR) program (\"immune resistant\" cells) post-treatment", "setting": "IGR37", "value": 2, "unit": "%"}, {"measurement": "Fold change (abemaciclib vs. DMSO treatment)", "setting": "melanoma cells; Hu 6Ckine/CCL21", "value": 0.9700}, {"measurement": "Fold change (abemaciclib vs. DMSO treatment)", "setting": "melanoma cells; Hu CTACK/CCL27", "value": 1.0834}, {"measurement": "Fold change (abemaciclib vs. DMSO treatment)", "setting": "melanoma cells; Hu ENA-78/CXCL5", "value": 1.0188}, {"measurement": "Fold change (abemaciclib vs. DMSO treatment)", "setting": "melanoma cells; Hu Eotaxin-3/CCL26", "value": 3.0279}, {"measurement": "Fold change (abemaciclib vs. DMSO treatment)", "setting": "melanoma cells; Hu Eotaxin/CCL11", "value": 0.9599}, {"measurement": "Fold change (abemaciclib vs. DMSO treatment)", "setting": "melanoma cells; Hu Fractalkine/CX3CL1", "value": 2.1863}, {"measurement": "Fold change (abemaciclib vs. DMSO treatment)", "setting": "melanoma cells; Hu GCP-2/CXCL6", "value": 0.6386}, {"measurement": "Fold change (abemaciclib vs. DMSO treatment)", "setting": "melanoma cells; Hu GM-CSF", "value": 1.0191}, {"measurement": "Fold change (abemaciclib vs. DMSO treatment)", "setting": "melanoma cells; Hu Gro-a/CXCL1", "value": 0.9135}, {"measurement": "Fold change (abemaciclib vs. DMSO treatment)", "setting": "melanoma cells; Hu Gro-b/CXCL2", "value": 0.7471}, {"measurement": "Fold change (abemaciclib vs. DMSO treatment)", "setting": "melanoma cells; Hu I-309/CCL1", "value": 1.0389}, {"measurement": "Fold change (abemaciclib vs. DMSO treatment)", "setting": "melanoma cells; Hu I-TAC/CXCL11", "value": 0.9524}, {"measurement": "Fold change (abemaciclib vs. DMSO treatment)", "setting": "melanoma cells; Hu IL-1b", "value": 1.0719}, {"measurement": "Fold change (abemaciclib vs. DMSO treatment)", "setting": "melanoma cells; Hu IL-2", "value": 0.5882}, {"measurement": "Fold change (abemaciclib vs. DMSO treatment)", "setting": "melanoma cells; Hu IL-4", "value": 1.6605}, {"measurement": "Fold change (abemaciclib vs. DMSO treatment)", "setting": "melanoma cells; Hu IL-6", "value": 0.3788}, {"measurement": "Fold change (abemaciclib vs. DMSO treatment)", "setting": "melanoma cells; Hu IL-8", "value": 0.7253}, {"measurement": "Fold change (abemaciclib vs. DMSO treatment)", "setting": "melanoma cells; Hu IL-10", "value": 1.0079}, {"measurement": "Fold change (abemaciclib vs. DMSO treatment)", "setting": "melanoma cells; Hu IL-16", "value": 0.8482}, {"measurement": "Fold change (abemaciclib vs. DMSO treatment)", "setting": "melanoma cells; Hu IP-10/CXCL10", "value": 0.9103}, {"measurement": "Fold change (abemaciclib vs. DMSO treatment)", "setting": "melanoma cells; Hu MCP-1/CCL2", "value": 0.7175}, {"measurement": "Fold change (abemaciclib vs. DMSO treatment)", "setting": "melanoma cells; Hu MCP-2/CCL8", "value": 1.0388}, {"measurement": "Fold change (abemaciclib vs. DMSO treatment)", "setting": "melanoma cells; Hu MCP-3/CCL7", "value": 1.0422}, {"measurement": "Fold change (abemaciclib vs. DMSO treatment)", "setting": "melanoma cells; Hu MCP-4/CCL13", "value": 0.8887}, {"measurement": "Fold change (abemaciclib vs. DMSO treatment)", "setting": "melanoma cells; Hu MDC/CCL22", "value": 1.1142}, {"measurement": "Fold change (abemaciclib vs. DMSO treatment)", "setting": "melanoma cells; Hu MIF", "value": 2.9587}, {"measurement": "Fold change (abemaciclib vs. DMSO treatment)", "setting": "melanoma cells; Hu MIP-1a/CCL3", "value": 1.0350}, {"measurement": "Fold change (abemaciclib vs. DMSO treatment)", "setting": "melanoma cells; Hu MIP-3a/CCL20", "value": 3.4000}, {"measurement": "Fold change (abemaciclib vs. DMSO treatment)", "setting": "melanoma cells; Hu MIP-3b/CCL19", "value": 0.8717}, {"measurement": "Fold change (abemaciclib vs. DMSO treatment)", "setting": "melanoma cells; Hu MIP-1d/CCL15", "value": 1.0809}, {"measurement": "Fold change (abemaciclib vs. DMSO treatment)", "setting": "melanoma cells; Hu SCYB16/CXCL16", "value": 1.1278}, {"measurement": "Fold change (abemaciclib vs. DMSO treatment)", "setting": "melanoma cells; Hu SDF1a + b/CXCL12", "value": 0.8885}, {"measurement": "Fold change (abemaciclib vs. DMSO treatment)", "setting": "melanoma cells; Hu TARC/CCL17", "value": 1.0104}, {"measurement": "Fold change (abemaciclib vs. DMSO treatment)", "setting": "melanoma cells; Hu TECK/CCL25", "value": 1.5510}, {"measurement": "Fold change (abemaciclib vs. DMSO treatment)", "setting": "melanoma cells; Hu TNF-a", "value": 0.7465}]}
